Among the data in US20230203060A1 (GENFLEET THERAPEUTICS (SHANGHAI) INC., priority 2020, published 2023) are IC50 values, retold here.

In assay [1] the test system is KRAS G12C mutant MIA PaCa-2 cells. The assay is described as follows: Cell proliferation inhibition experiment, 3D spheroid, CellTiter-Glo, MIA PaCa-2. The assay is classed as cell-based, human. Conditions: Homo sapiens, MIA PaCa-2, 120 h, 3D cell model in 384-well spheroid plate, 5 days, CellTiter-Glo; read-out: MIA-PaCa2 IC50. The procedure, abridged: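 200 MIA PaCa-2 cells/well grown overnight as 3D spheroids, then exposed to 3.16-fold compound dilutions (0.1% DMSO final) for 5 days. Viability read by CellTiter-Glo luminescence; inhibition calculated against DMSO and medium-only controls, and IC50 fitted by four-parameter model.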
Background: In ATP-based viability assays light output follows the ATP content of the culture.

The next assay addresses T1, KRAS G12C (Homo sapiens, UniProt P01116, G12C).
T1 construct: purchased Reactionbiology
The assay is described as follows: KRAS G12C NEA-HTRF experiment (SOS1-catalyzed displacement of GDP by GTP). The assay is classed as biochemical. An excerpt: Raw materials and instruments: KRAS G12C (his-tag) purchased from Reactionbiology; batch number 3496; SOS1 purchased from Reactionbiology; batch number: 3501; GTP purchased from Sigma; article number: G8877; batch number: SLBV1450; Tris-HC1 purchased from Sigma; EDTA purchased from absin; article number: abs42017668; batch number: JE20; NaCl purchased from Sigma; article number: 55886; batch number: SLBW4193; MgCl2 purchased from Shyuanye; article number: R21455; batch number: L07S9G69806; HEPES purchased from Life Technologies; article number: 15630-080; batch number: 2037042; DTT purchased from Thermo Fisher; article number: R0862; batch number: 00608918; Triton X-100 purchased from Sigma; article number: T8787-100 ML; batch number: SLBW7103; DY647-labeled GDP purchased from Jena Bioscience; article number: NU-840-647P1; batch number: BM019-045; Anti-6H1S-Tb purchased from Cisbio; article number: 61H12TLA; batch number: 13A; Bradford Assay Kit purchased from Thermo Fisher; article number: 23246; batch number: UG287474; white opaque 96-well plate purchased from Cisbio; article number: 66PL96025; batch number: N°06; NAP-5 column purchased from GE Healthcare; article number: 17085301; batch number: 16995164; mircoplate reader purchased from PerkinElmer; model: Envision MLD2105-0020; equipment number 1050369. The effect of compounds on SOS1-catalyzed displacement of GDP by GTP on KRAS protein was examined using a homogeneous time-resolved fluorescence (HTRF) method. 30 μM 6×his-tagged KRAS G12C recombinant protein was incubated with 80 μM fluorescent dye DY647-labeled GDP in labeling buffer (1 mM DTT, 7.5 mM EDTA, 25 mM Tris-HCl, 45 mM NaCl) at 20° C. in the dark for 2 hours, purified using NAP-5 column, and then protein quantification was performed with Bradford Assay Kit after purification to determine the concentration of KRAS […] 3.16-fold gradient concentration stock solution of 1000× compound was prepared with DMSO, and diluted 250-fold to 4× compound stock solution with reaction buffer (40 mM HEPES, 10 mM MgCl2, 1 mM DTT, 0.002% Triton X-100). KRAS G12C-GDP/Tb working solution (40 nM KRAS […] Tb) and SOS1/GTP working solution (0.2 μM SOS1, 200 μM GTP) were prepared using the reaction buffer. A white opaque 96-well plate was taken, and 5 μL of 4× compound stock solution and 10 μL of KRAS G12C-GDP/Tb working solution were added to each well. 5 μL of reaction buffer instead of 4x compound stock solution was used in the control well. After incubation in the dark for 15 minutes at 20° C., 5μL of SOS1/GTP working solution was added thereto, and the fluorescence value (excitation wavelength: 320 nm, emission wavelength: 615 nm and 665 nm) was read after incubating at 20° C. in the dark for 2 hours. Another T0 group was set up with 10 μL reaction buffer+10 μL KRAS G12C-GDP/Tb working solution, and the fluorescence value was read directly by the microplate reader. The fluorescence signal ratio RLU=(665 nm signal/615 nm signal)×10^4; and the compound inhibition rate IR (%)=(RLUcompound-RLUcontrol)/(RLUT0-RLUcontrol)×100% were calculated. The IC50 value was calculated by fitting the gradient dilution concentration of compound and the corresponding inhibition rate with the four-parameter method. The NEA activity of the compounds prepared in the above embodiments of the present disclosure was 0.0001 μM to 1 μM; the inhibitory activity of some compounds on KRAS G12C mutant MIA PaCa-2 cells was 0.001 μM to 0.5 μM or 0.001 μM to 0.1 μM.
For orientation: TR-FRET usually uses a lanthanide donor and a delayed reading to cut background.

Where a name gives a salt, the structure may show the parent alone.

T1 sequence (P01116 1-188 isoform P01116-2 G12C): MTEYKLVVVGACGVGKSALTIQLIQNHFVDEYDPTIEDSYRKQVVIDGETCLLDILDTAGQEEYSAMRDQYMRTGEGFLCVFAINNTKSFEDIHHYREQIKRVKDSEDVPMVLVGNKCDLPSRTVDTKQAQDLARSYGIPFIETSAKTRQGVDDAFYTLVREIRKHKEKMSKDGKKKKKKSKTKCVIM

For orientation: IC50 means the midpoint of a concentration-inhibition curve. With `C=CC(=O)N1CCN2C(=O)c3c(N4CC[C@@H]5C[C@@H]54)nc(-c4c(O)cccc4F)c(Cl)c3OC[C@H]2C1` (single isomer, unassigned) [Z39-2], the IC50 in assay [1] was found to be 13 nM; on KRAS G12C it was 66 nM.

In turn, `C=CC(=O)N1CCN2C(=O)c3c(N4C[C@H](O)[C@H]4C)nc(-c4c(O)cccc4F)c(Cl)c3OC[C@H]2C1` (single isomer, unassigned) [Z102-4] showed an IC50 on KRAS G12C of 103 nM.

In the case of `C=CC(=O)N1CCN2C(=O)c3c(N4CCN(C5COC5)C[C@@H]4C)nc(-c4c(O)cccc4F)c(Cl)c3OC[C@H]2C1` (single isomer, unassigned) [Z239-1], the IC50 turned out to be 20 nM in assay [1] and 124 nM on KRAS G12C.

In the case of `C=CC(=O)N1CCN2C(=O)c3c(N4C[C@@H](CO)CC4(C)C)nc(-c4c(O)cccc4F)c(Cl)c3OC[C@H]2C1` (single isomer, unassigned) [Z240-1], the figures for the IC50 (in assay [1]; at KRAS G12C) were 3.7 nM and 11 nM, respectively.

Consider `C=CC(=O)N1CCN2C(=O)c3c(N4C[C@H](CO)CC4(C)C)nc(-c4c(O)cccc4F)c(Cl)c3OC[C@H]2C1` (single isomer, unassigned) [Z240-2], for which the IC50 in assay [1] worked out at 3.3 nM; on KRAS G12C, 11 nM.

With `C=CC(=O)N1CCN2C(=O)c3c(N4CC[C@H](OC)C4(C)C)nc(-c4c(O)cccc4F)c(Cl)c3OC[C@H]2C1` (single isomer, unassigned) [Z241a-1], the IC50 came out at 4.3 nM in assay [1] and 13 nM on KRAS G12C.

Regarding `C=CC(=O)N1CCN2C(=O)c3c(N4CC[C@@H](OC)C4(C)C)nc(-c4c(O)cccc4F)c(Cl)c3OC[C@H]2C1` (single isomer, unassigned) [Z241a-2], the IC50 in assay [1] was 1.5 nM; on KRAS G12C it was 5 nM.

Turning to `C=CC(=O)N1CCN2C(=O)c3c(N4C[C@@](C)(O)CC4(C)C)nc(-c4c(O)cccc4F)c(Cl)c3OC[C@H]2C1` (single isomer, unassigned) [Z243-1], the IC50 in assay [1] came to 1.5 nM; at KRAS G12C, 7 nM.

Take `C=CC(=O)N1CCN2C(=O)c3c(N4C[C@](C)(O)CC4(C)C)nc(-c4c(O)cccc4F)c(Cl)c3OC[C@H]2C1` (single isomer, unassigned) [Z243-2]: the IC50 in assay [1] turned out to be 22.2 nM; on KRAS G12C, 76 nM.

For the compound `C=CC(=O)N1CCN2C(=O)c3c(N4C[C@@H](OC)CC4(C)C)nc(-c4c(O)cccc4F)c(Cl)c3OC[C@H]2C1` (single isomer, unassigned) [Z244-1], the IC50 in assay [1] is 8 nM; at KRAS G12C, 26 nM.

Turning to `C=CC(=O)N1CCN2C(=O)c3c(N4C[C@H](OC)CC4(C)C)nc(-c4c(O)cccc4F)c(Cl)c3OC[C@H]2C1` (single isomer, unassigned) [Z244-2], the IC50 in assay [1] came out at 1 nM; on KRAS G12C, 5 nM.

On to `C=CC(=O)N1CCN2C(=O)c3c(N4C[C@@H](O)CC4(C)C)nc(-c4c(O)cccc4F)c(F)c3OC[C@H]2C1` (single isomer, unassigned) [Z256-1], for which the half-inhibitory concentration (IC50) amounted to 5 nM in assay [1] and 26 nM on KRAS G12C.

Take `C=CC(=O)N1CCN2C(=O)c3c(N4C[C@@H](OC)CC4(C)C)nc(-c4c(O)cccc4F)c(F)c3OC[C@H]2C1` (single isomer, unassigned) [Z256a-1]: the IC50 came out at 11.6 nM in assay [1] and 41 nM on KRAS G12C.

For the compound `C=CC(=O)N1CCN2C(=O)c3c(N4C[C@H](OC)CC4(C)C)nc(-c4c(O)cccc4F)c(F)c3OC[C@H]2C1` (single isomer, unassigned) [Z256a-2], the figures for the IC50 (in assay [1]; at KRAS G12C) were 3.8 nM and 18 nM, respectively.

On to `C=CC(=O)N1CCN2C(=O)c3c(N4C[C@@](C)(O)CC4(C)C)nc(-c4c(O)cccc4F)c(F)c3OC[C@H]2C1` (single isomer, unassigned) [Z256b-1], for which the figures for the IC50 (in assay [1]; on KRAS G12C) were 6.2 nM and 33 nM, respectively.

`C=CC(=O)N1CCN2C(=O)c3c(N4Cc5cn(C)nc5[C@H]4C)nc(-c4c(O)cccc4F)c(Cl)c3OC[C@H]2C1` (single isomer, unassigned) [Z291-1S, trifluoroacetate]: the results for the concentration for half-maximal inhibition (IC50) (in assay [1]; at KRAS G12C) were 30.7 nM and 76 nM, respectively.

Take `C=CC(=O)N1CCN2C(=O)c3c(N4CC(N(C)CCOC)CC4(C)C)nc(-c4c(O)cccc4F)c(Cl)c3OCC2C1` (single isomer, unassigned) [Z296-1]: the values for the half-maximal inhibitory concentration (IC50) (in assay [1]; at KRAS G12C) were 1.1 nM and 7 nM, respectively.

As for `C=CC(=O)N1CCN2C(=O)c3c(N4C[C@H](N(C)CCOC)CC4(C)C)nc(-c4c(O)cccc4F)c(Cl)c3OC[C@H]2C1` (single isomer, unassigned) [Z296-2], the IC50 in assay [1] was 8 nM; at KRAS G12C, 39 nM.

Take `C=CC(=O)N1CCN2C(=O)c3c(N4C[C@H](N5CCOCC5)CC4(C)C)nc(-c4c(O)cccc4F)c(Cl)c3OC[C@H]2C1` (single isomer, unassigned) [Z297-1]: the figures for the IC50 (in assay [1]; on KRAS G12C) were 3 nM and 19 nM, respectively.

On to `C=CC(=O)N1CCN2C(=O)c3c(N4C[C@@H](N5CCOCC5)CC4(C)C)nc(-c4c(O)cccc4F)c(Cl)c3OC[C@H]2C1` (single isomer, unassigned) [Z297-2], for which the IC50 turned out to be 3 nM in assay [1] and 8 nM on KRAS G12C.

As to `C=CC(=O)N1CCN2C(=O)c3c(N4CCN(C)[C@H](C)[C@@H]4C)nc(-c4c(O)cccc4F)c(Cl)c3OC[C@H]2C1` (single isomer, unassigned) [Z308a-1], the IC50 in assay [1] worked out at 7.8 nM; on KRAS G12C it was 58 nM.

`C=CC(=O)N1CCN2C(=O)c3c(N4CC(O)CC4(C)C)nc(-c4c(O)cccc4F)c(C)c3OC[C@H]2C1` (single isomer, unassigned) [Z336-2] gave an IC50 at KRAS G12C of 27 nM.

On KRAS G12C, `C=CC(=O)N1CCN2C(=O)c3c(N4C[C@H](N(C)C)C[C@@H]4C)nc(-c4c(O)cccc4F)c(Cl)c3OC[C@H]2C1` [Z237-1, (6aR)-8-acryloyl-4-chloro-1-((2S,4R)-4-(dimethylamino)-2-methylpyrrolidin-1-yl)-3-(2-fluoro-6-hydroxyphenyl)-6,6a,7,8,9,10-hexahydro-12H-pyrazino[2,1-c]pyrido[3,4-f][1,4]oxazepin-12-one] gave an IC50 of 122 nM.

At KRAS G12C, `C=CC(=O)N1CCN2C(=O)c3c(N4CC(CO)CC4(C)C)nc(-c4c(O)cccc4F)c(Cl)c3OC[C@H]2C1` (stereo partly drawn) [Z240, (6aR)-8-acryloyl-4-chloro-3-(2-fluoro-6-hydroxyphenyl)-1-(4-(hydroxymethyl)-2,2-dimethylpyrrolidin-1-yl)-6,6a,7,8,9,10-hexahydro-12H-pyrazino[2,1-c]pyrido[3,4-f][1,4]oxazepin-12-one] showed an IC50 of 10 nM.

`C=CC(=O)N1CCN2C(=O)c3c(N4CCN(C5CC5)C[C@@H]4C)nc(-c4c(O)cccc4F)c(Cl)c3OC[C@H]2C1` [Z312-1, (6aR)-8-acryloyl-4-chloro-1-((S)-4-cyclopropyl-2-methylpiperazin-1-yl)-3-(2-fluoro-6-hydroxyphenyl)-6,6a,7,8,9,10-hexahydro-12H-pyrazino[2,1-c]pyrido[3,4-f][1,4]oxazepin-12-one] displayed an IC50 on KRAS G12C of 134 nM.

Turning to `C=CC(=O)N1CCN2C(=O)c3c(N4CC(=O)N(CC)C[C@@H]4C)nc(-c4c(O)cccc4F)c(Cl)c3OC[C@H]2C1` [Z319-1, (6aR)-8-acryloyl-4-chloro-1-((S)-4-ethyl-2-methyl-5-oxopiperazin-1-yl)-3-(2-fluoro-6-hydroxyphenyl)-6,6a,7,8,9,10-hexahydro-12H-pyrazino[2,1-c]pyrido[3,4-f][1,4]oxazepin-12-one], the half-maximal inhibitory concentration (IC50) on KRAS G12C is 9 nM.
